≈ marks a conversion by molar mass, not a printed value. Blank lines part the entries; values can stand above or below the molecule they belong to.
Key:
[1] = Kinetic solubility of the compound at pH 6.8; type: physicochemical; conditions: buffer, read-out: Kinetic_solubility
[2] = Kinetic solubility of the compound at pH 1.2; type: physicochemical; conditions: buffer, read-out: Kinetic_solubility
[3] = target: T1, Sodium channel protein type 9 subunit alpha (Homo sapiens, UniProt Q15858); experiment: Inhibition of Nav1.7 (unknown origin) expressed in CHO cells after 45 mins by FLIPR assay; type: cell-based
T1 sequence (Q15858 whole entry): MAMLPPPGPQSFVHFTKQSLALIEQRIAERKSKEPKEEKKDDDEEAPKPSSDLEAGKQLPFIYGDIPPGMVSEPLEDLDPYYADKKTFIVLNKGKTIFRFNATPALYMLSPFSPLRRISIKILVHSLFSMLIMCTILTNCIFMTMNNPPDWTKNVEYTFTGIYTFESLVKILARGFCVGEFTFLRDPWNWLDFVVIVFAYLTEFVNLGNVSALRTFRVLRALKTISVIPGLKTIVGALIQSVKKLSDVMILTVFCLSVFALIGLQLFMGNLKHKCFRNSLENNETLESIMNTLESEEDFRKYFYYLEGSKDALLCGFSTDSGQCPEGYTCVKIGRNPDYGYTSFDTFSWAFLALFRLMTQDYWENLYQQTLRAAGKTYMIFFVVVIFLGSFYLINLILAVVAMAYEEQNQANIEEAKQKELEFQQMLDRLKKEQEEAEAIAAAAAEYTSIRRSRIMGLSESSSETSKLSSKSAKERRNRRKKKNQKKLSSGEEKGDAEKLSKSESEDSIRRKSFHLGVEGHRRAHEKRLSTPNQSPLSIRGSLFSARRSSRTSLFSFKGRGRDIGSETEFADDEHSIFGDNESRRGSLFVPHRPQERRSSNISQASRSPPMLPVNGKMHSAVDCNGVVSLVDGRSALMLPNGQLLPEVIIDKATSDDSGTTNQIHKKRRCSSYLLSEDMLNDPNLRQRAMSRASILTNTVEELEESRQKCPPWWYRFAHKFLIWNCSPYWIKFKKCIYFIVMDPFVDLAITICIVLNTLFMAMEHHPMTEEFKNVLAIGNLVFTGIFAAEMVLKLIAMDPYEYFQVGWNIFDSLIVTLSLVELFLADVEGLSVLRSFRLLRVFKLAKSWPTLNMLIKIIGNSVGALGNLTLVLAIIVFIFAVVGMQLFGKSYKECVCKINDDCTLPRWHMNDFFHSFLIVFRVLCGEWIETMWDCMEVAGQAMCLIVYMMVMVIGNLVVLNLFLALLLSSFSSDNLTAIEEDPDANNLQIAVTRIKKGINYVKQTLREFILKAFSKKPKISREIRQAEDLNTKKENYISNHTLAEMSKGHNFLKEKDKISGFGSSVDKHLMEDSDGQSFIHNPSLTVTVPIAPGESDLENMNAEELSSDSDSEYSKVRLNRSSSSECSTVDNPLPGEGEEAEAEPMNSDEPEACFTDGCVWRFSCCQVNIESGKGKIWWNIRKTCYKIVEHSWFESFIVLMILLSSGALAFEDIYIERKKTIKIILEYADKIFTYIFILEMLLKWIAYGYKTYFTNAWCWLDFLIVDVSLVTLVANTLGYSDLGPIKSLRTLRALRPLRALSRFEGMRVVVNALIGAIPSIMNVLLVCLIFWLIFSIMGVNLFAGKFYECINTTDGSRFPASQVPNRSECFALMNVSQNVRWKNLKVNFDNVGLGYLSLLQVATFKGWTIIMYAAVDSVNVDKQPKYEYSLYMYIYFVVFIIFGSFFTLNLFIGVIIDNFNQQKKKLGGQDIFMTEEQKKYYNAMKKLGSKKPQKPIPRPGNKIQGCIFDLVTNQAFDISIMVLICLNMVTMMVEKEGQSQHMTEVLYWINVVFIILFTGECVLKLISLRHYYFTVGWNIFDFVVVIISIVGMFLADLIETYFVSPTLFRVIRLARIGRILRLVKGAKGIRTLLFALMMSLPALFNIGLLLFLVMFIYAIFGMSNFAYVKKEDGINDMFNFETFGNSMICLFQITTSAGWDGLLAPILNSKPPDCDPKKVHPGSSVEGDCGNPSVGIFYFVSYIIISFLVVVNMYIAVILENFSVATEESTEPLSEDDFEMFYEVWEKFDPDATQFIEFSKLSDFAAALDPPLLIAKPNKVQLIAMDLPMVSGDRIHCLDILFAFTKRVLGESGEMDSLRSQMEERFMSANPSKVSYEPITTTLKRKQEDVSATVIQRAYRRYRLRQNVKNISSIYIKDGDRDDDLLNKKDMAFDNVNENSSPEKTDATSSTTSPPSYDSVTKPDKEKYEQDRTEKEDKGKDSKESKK

[4] = target: T1, Sodium channel protein type 9 subunit alpha; experiment: Inhibition of Nav1.7 (unknown origin) by electrophysiological assay
[5] = Tmax in Sprague-Dawley rat at 3 mg/kg, po; type: ADME, organism-based; conditions: in vivo
MDR1 [6] = experiment: Efflux ratio of permeability from basolateral to apical side over apical to basolateral side in MDCK cells expressing MDR1; type: ADME, cell-based, Canis lupus familiaris; conditions: dog
MDR1 [7] = experiment: Apparent permeability from basolateral to apical side in MDCK cells expressing MDR1; type: ADME, cell-based, Canis lupus familiaris; conditions: dog
[8] = Cmax in Sprague-Dawley rat at 3 mg/kg, po; type: ADME, organism-based; set-up: dose 3 mg/kg, route oral; conditions: in vivo
MDR1 [9] = experiment: Apparent permeability from apical to basolateral side in MDCK cells expressing MDR1; type: ADME, cell-based, Canis lupus familiaris; conditions: dog
[10] = AUC in Sprague-Dawley rat at 3 mg/kg, po; type: ADME, organism-based; conditions: in vivo
hERG (KCNH2) = hERG (KCNH2) (Homo sapiens, UniProt Q12809); experiment: Inhibition of human ERG at 1 uM
Chain of hERG (KCNH2) (Q12809 whole entry): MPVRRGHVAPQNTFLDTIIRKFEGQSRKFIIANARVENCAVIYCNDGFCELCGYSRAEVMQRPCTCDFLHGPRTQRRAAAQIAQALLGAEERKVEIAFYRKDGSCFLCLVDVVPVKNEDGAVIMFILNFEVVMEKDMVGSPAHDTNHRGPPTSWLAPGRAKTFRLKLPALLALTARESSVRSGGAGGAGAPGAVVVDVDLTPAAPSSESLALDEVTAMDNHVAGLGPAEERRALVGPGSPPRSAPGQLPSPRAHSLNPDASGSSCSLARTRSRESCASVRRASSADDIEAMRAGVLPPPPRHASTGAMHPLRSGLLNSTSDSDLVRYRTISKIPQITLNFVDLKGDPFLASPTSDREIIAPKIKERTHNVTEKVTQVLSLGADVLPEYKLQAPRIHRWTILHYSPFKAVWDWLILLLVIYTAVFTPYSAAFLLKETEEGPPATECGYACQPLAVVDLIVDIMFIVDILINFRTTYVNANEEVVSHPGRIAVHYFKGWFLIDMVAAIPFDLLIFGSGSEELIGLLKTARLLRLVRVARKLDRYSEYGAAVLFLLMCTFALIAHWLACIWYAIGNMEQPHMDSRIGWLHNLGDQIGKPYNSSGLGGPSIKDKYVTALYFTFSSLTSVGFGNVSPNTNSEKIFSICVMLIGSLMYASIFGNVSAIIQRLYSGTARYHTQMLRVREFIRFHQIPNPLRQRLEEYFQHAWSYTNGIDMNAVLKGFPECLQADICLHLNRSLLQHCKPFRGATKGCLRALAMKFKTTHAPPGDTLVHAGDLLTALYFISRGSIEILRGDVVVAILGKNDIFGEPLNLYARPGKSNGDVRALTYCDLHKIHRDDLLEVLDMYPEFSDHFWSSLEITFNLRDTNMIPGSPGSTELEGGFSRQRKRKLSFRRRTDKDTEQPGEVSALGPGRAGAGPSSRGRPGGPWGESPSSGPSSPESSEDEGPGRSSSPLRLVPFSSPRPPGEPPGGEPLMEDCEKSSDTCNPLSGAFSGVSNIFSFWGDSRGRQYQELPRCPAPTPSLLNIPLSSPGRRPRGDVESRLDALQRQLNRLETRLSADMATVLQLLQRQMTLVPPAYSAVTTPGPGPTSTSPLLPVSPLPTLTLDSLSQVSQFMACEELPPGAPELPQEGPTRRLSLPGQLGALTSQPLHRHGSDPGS

Tmax [5]: 2.5 h
efflux ratio (MDR1 [6]): 31
Papp B→A (MDR1 [7]): 28.3 ×10⁻⁶ cm/s
Cmax [8]: 94 ng/mL
solubility kinetic [1]: 39 µM (≈ 18.4 µg/mL)
Papp A→B (MDR1 [9]): 0.9 ×10⁻⁶ cm/s
solubility kinetic [2]: 80 µM (≈ 37.7 µg/mL)
AUC [10]: 562 ng·h/mL
Structure (SMILES): CC(=O)N1CCN(c2ccc(C(F)(F)F)cc2)c2ccc(-c3cccc([C@H](O)CO)n3)cc2C1
inhibition at 1 µM (hERG (KCNH2)): 13.9%

Ki [4]: 230 nM
Structure (SMILES): CS(=O)(=O)N1CCN(c2ccc(C(F)(F)F)cc2)c2ccc(-c3cccc([C@H](O)CO)n3)cc2C1

Tmax [5]: 2.5 h
Cmax [8]: 21 ng/mL
solubility kinetic [1]: 1 µM (≈ 0.472 µg/mL)
solubility kinetic [2]: 66 µM (≈ 31.2 µg/mL)
AUC [10]: 133 ng·h/mL
Structure (SMILES): NC(=O)N1CCN(c2ccc(C(F)(F)F)cc2)c2ccc(-c3cccc([C@H](O)CO)n3)cc2C1
inhibition at 1 µM (hERG (KCNH2)): 22.6%

Continued, molecule first:

Structure (SMILES): NC(=O)c1cccc(-c2ccc3c(c2)CCCCN3c2ccc(C(F)(F)F)cc2)n1
solubility kinetic [1]: 0.02 µM (≈ 0.00823 µg/mL)
solubility kinetic [2]: 0.03 µM (≈ 0.0123 µg/mL)

Structure (SMILES): NC(=O)c1cccc(-c2ccc3c(c2)OCCCN3c2ccc(C(F)(F)F)cc2)n1
solubility kinetic [1]: 0.08 µM (≈ 0.0331 µg/mL)
solubility kinetic [2]: 0.08 µM (≈ 0.0331 µg/mL)

Structure (SMILES): NC(=O)c1cccc(-c2ccc3c(c2)CNCCN3c2ccc(C(F)(F)F)cc2)n1
solubility kinetic [1]: 0.59 µM (≈ 0.243 µg/mL)
solubility kinetic [2]: 18 µM (≈ 7.42 µg/mL)

Structure (SMILES): CC(=O)N1CCN(c2ccc(C(F)(F)F)cc2)c2ccc(-c3cccc(C(N)=O)n3)cc2C1
IC50 [3]: 380 nM

Structure (SMILES): CNC(=O)CN1CCN(c2ccc(C(F)(F)F)cc2)c2ccc(-c3cccc([C@H](O)CO)n3)cc2C1
Ki [4]: 440 nM

Source: ChEMBL document CHEMBL3576839, “N-Aryl azacycles as novel sodium channel blockers” (Bioorg Med Chem Lett, 2015)
